Results from patent US8372967B2, “Compounds and methods for modulating expression of GCCR” (Isis Pharmaceuticals, Inc., priority 2006, dated 2013).
Strand notation (5' to 3'): a small letter for the sugar, then the base; units joined by * are phosphorothioate-linked, units joined directly phosphodiester-linked; [ ] holds rarer units or linkages, { } end groups; capitals alone tell only the bases. e = 2'-O-(2-methoxyethyl) (MOE); [5mC] = 5-methylcytosine; d = 2'-deoxy (DNA)

Key:
Format in all cases: in vivo, mouse
SGLT2 mRNA = SGLT2 mRNA in kidney of Balb/c mice, twenty 1-10-1 MOE gapmers, PPS 534 and PPS 553 (Table 74); details: i.p. 350 nmol/kg twice per week for two weeks
Description: Twenty 1-10-1 MOE gapmers that are complementary to human/monkey/mouse/rat SGLT2 were designed, synthesized and tested in vivo for suppression of SGLT2 mRNA levels in kidney. Data are averages from two experiments in which male 6-week old Balb/c mice were administered intraperitoneal injections of 350 nmol/kg of oligonucleotide, twice per week, over a period of two weeks (a total of four injections). Mice were sacrificed 48 hours following the last administration and evaluated for SGLT2 mRNA levels in kidney. SGLT2 mRNA levels were determined by quantitative real-time PCR analysis according to standard procedures, using two different PCR primer probe sets, primer probe set (PPS) 534 and PPS 553. SGLT2 mRNA levels were normalized to cyclophilin mRNA levels, which were also measured by quantitative real-time PCR.

[1] = Triglyceride, cholesterol and glucose levels, pre-bleed and post-bleed, GCGR study (Table 34); set-up: Triglyceride (TRIG) Pre-Bleed / Triglyceride (TRIG) Post-Bleed / Cholesterol (CHOL) Pre-Bleed / Cholesterol (CHOL) Post-Bleed / Glucose Pre-Bleed / Glucose Post-Bleed: unit not given here; details: for Cholesterol (CHOL) Pre-Bleed / Triglyceride (TRIG) Pre-Bleed: pre-treatment bleed; for Cholesterol (CHOL) Post-Bleed / Triglyceride (TRIG) Post-Bleed: post-treatment bleed
Description: (§1) Eight-week old male C57/BL6 mice (Jackson Laboratory, Bar Harbor, Me.) were administered a single dose of GCGR oligonucleotide by intraperitoneal injection at a concentration of […]. Each dose group consisted of four animals. Shown in Table 31 are the sequences, motifs and conjugates of the GCGR antisense compounds used in this study. Bolded residues indicate 2′-O-methoxyethyl (2′-MOE) moieties. All compounds comprise phosphorothioate internucleoside linkages throughout and each cytosine is replaced with 5-methylcytosine. ISIS 386626, ISIS 386627 and ISIS 386628 further comprise a C16 conjugate group attached to the 2′-O position of the sugar via a diamide linkage (2′-OCH2C(═O)N(H)(CH2)4N(H)C(═O)—(CH2)15CH3). GCGR antisense compounds target published GCGR sequences, including Genbank® Accession No. BC031885.1 (SEQ ID NO: 7).
(§2) Mice were sacrificed 48 hours following injection to determine serum transaminase levels (Table 32); liver, white adipose tissue (WAT), spleen and kidney weight (Table 33); cholesterol, triglyceride and glucose levels (Table 34); GCGR mRNA levels (Tables 35-41); and full-length and total oligonucleotide concentration in liver and kidney (Table 42). Endpoints were assessed using methods described herein and well known to those of ordinary skill in the art. Data is included from a pre-treatment bleed (Pre-Bleed) and post-treatment bleed (Post-Bleed).

[2] = Organ weights: liver, WAT, spleen, kidney, GCGR study (Table 33); details: 48 h
Description: as §1, §2

GCGR mRNA = GCGR mRNA levels in liver, C57/BL6 mice, single i.p. dose (Tables 35-41); details: for GCGR mRNA levels: Table 35 comparison ISIS 148364 & ISIS 386626
Description: Prior to quantitative PCR analysis, primer-probe sets specific to the target gene being measured were evaluated for their ability to be “multiplexed” with a GAPDH amplification reaction. After isolation the RNA is subjected to sequential reverse transcriptase (RT) reaction and real-time PCR, both of which are performed in the same well. RT and PCR reagents were obtained from Invitrogen Life Technologies (Carlsbad, Calif.). […] The RT reaction was carried out by incubation for 30 minutes at 48° C. Following a 10 minute incubation at 95° C. to activate the PLATIN 9M® Taq, 40 cycles of a two-step PCR protocol were carried out: 95° C. for 15 seconds (denaturation) followed by 60° C. for 1.5 minutes (annealing/extension).
170 μL of RiboGreen® working reagent (RiboGreen® reagent diluted 1:350 in 10 mM Tris-HCl, 1 mM EDTA, pH 7.5) was pipetted into a 96-well plate containing 30 μL purified cellular RNA. The plate was read in a CytoFluor® 4000 (PE Applied Biosystems) with excitation at 485 nm and emission at 530 nm.
as §1, §2
To determine whether the phenotypic changes shown above correlated with a decrease in GCGR mRNA, treated animals were evaluated for levels of target mRNA in liver by real time PCR according to methods described herein. Tables 35 to 41 show results from direct comparisons of the antisense compounds targeting GCGR nucleic acid for their effect on target expression. Results are expressed as percent of saline control.

[3] = ALT & AST levels and toxic effects, GCGR study (Table 32); details: C57/BL6 mice, pre-treatment bleed
Description: as §1, §2

[4] = primer probe set 534, normalized to cyclophilin
[5] = primer probe set 553, normalized to cyclophilin

Substance: 379691 (antisense eA*dG*dA*dT*d[5mC]*dT*dT*dG*dG*dT*dG*eA) [compound 379691]
- % change in SGLT2 mRNA vs saline (SGLT2 mRNA; [4]): −35.0 % Saline
- % change in SGLT2 mRNA vs saline (SGLT2 mRNA; [5]): −48.6 % Saline

Substance: 379692 (antisense eT*dG*dT*dT*d[5mC]*d[5mC]*dA*dG*d[5mC]*d[5mC]*d[5mC]*eA) [compound 379692]
- % change in SGLT2 mRNA vs saline (SGLT2 mRNA; [4]): −88.1 % Saline
- % change in SGLT2 mRNA vs saline (SGLT2 mRNA; [5]): −88.5 % Saline

Substance: 379693 (antisense e[5mC]*dA*dT*dG*dG*dT*dG*dA*dT*dG*d[5mC]*e[5mC]) [compound 379693]
- % change in SGLT2 mRNA vs saline (SGLT2 mRNA; [4]): −51.6 % Saline
- % change in SGLT2 mRNA vs saline (SGLT2 mRNA; [5]): −59.9 % Saline

Substance: 379694 (antisense eG*dA*d[5mC]*dG*dA*dA*dG*dG*dT*d[5mC]*dT*eG) [compound 379694]
- % change in SGLT2 mRNA vs saline (SGLT2 mRNA; [4]): −42.1 % Saline
- % change in SGLT2 mRNA vs saline (SGLT2 mRNA; [5]): −54.4 % Saline

Substance: 379695 (antisense eG*dG*dA*d[5mC]*dA*d[5mC]*d[5mC]*dG*dT*d[5mC]*dA*eG) [compound 379695]
- % change in SGLT2 mRNA vs saline (SGLT2 mRNA; [4]): −52.5 % Saline
- % change in SGLT2 mRNA vs saline (SGLT2 mRNA; [5]): −64.1 % Saline

Substance: 379696 (e[5mC]*dA*dG*d[5mC]*dT*dT*d[5mC]*dA*dG*dG*dT*eA; antisense) [compound 379696]
- % change in SGLT2 mRNA vs saline (SGLT2 mRNA; [4]): −24.6 % Saline
- % change in SGLT2 mRNA vs saline (SGLT2 mRNA; [5]): −36.2 % Saline

Substance: 379697 (e[5mC]*dT*dG*dG*d[5mC]*dA*dT*dG*dA*d[5mC]*d[5mC]*eA; antisense) [compound 379697]
- % change in SGLT2 mRNA vs saline (SGLT2 mRNA; [4]): −32.0 % Saline
- % change in SGLT2 mRNA vs saline (SGLT2 mRNA; [5]): −46.3 % Saline

Substance: 379698 (eG*d[5mC]*dA*dG*d[5mC]*d[5mC]*d[5mC]*dA*d[5mC]*d[5mC]*dT*e[5mC]) [compound 379698]
- % change in SGLT2 mRNA vs saline (SGLT2 mRNA; [4]): −11.8 % Saline
- % change in SGLT2 mRNA vs saline (SGLT2 mRNA; [5]): −27.0 % Saline

Substance: 379699 (eG*dG*d[5mC]*dA*dT*dG*dA*dG*d[5mC]*dT*dT*e[5mC]) [compound 379699]
- % change in SGLT2 mRNA vs saline (SGLT2 mRNA; [4]): −83.5 % Saline
- % change in SGLT2 mRNA vs saline (SGLT2 mRNA; [5]): −85.8 % Saline

Substance: 379700 (e[5mC]*d[5mC]*dA*dG*d[5mC]*dA*dT*dG*dA*dG*dT*e[5mC]; antisense) [compound 379700]
- % change in SGLT2 mRNA vs saline (SGLT2 mRNA; [4]): −2.8 % Saline
- % change in SGLT2 mRNA vs saline (SGLT2 mRNA; [5]): −16.4 % Saline

Substance: 379701 (e[5mC]*d[5mC]*dA*dT*dG*dG*dT*dG*dA*dA*dG*eA) [compound 379701]
- % change in SGLT2 mRNA vs saline (SGLT2 mRNA; [4]): −0.3 % Saline
- % change in SGLT2 mRNA vs saline (SGLT2 mRNA; [5]): −11.9 % Saline

Substance: 379702 (eG*d[5mC]*dA*d[5mC]*dA*d[5mC]*dA*dG*d[5mC]*dT*dG*e[5mC]) [compound 379702]
- % change in SGLT2 mRNA vs saline (SGLT2 mRNA; [4]): −87.8 % Saline
- % change in SGLT2 mRNA vs saline (SGLT2 mRNA; [5]): −89.5 % Saline

Substance: 379703 (eG*d[5mC]*d[5mC]*dG*dG*dA*dG*dA*d[5mC]*dT*dG*eA; antisense) [compound 379703]
- % change in SGLT2 mRNA vs saline (SGLT2 mRNA; [4]): −44.2 % Saline
- % change in SGLT2 mRNA vs saline (SGLT2 mRNA; [5]): −45.9 % Saline

Substance: 386626 (antisense GCTTCTCCATCATA; chemistry not fully specified) [compound 386626]
- Cholesterol (CHOL) Pre-Bleed ([1]; 6.25 mg/kg group): 85
- Triglyceride (TRIG) Pre-Bleed ([1]; 6.25 mg/kg group): 86
- Cholesterol (CHOL) Post-Bleed ([1]; 6.25 mg/kg single i.p.): 90
- Triglyceride (TRIG) Post-Bleed ([1]; 6.25 mg/kg single i.p.): 162
- Cholesterol (CHOL) Pre-Bleed ([1]; 12.5 mg/kg group): 82
- Triglyceride (TRIG) Pre-Bleed ([1]; 12.5 mg/kg group): 100
- Cholesterol (CHOL) Post-Bleed ([1]; 12.5 mg/kg single i.p.): 76
- Triglyceride (TRIG) Post-Bleed ([1]; 12.5 mg/kg single i.p.): 148
- Cholesterol (CHOL) Pre-Bleed ([1]; 25 mg/kg group): 87
- Triglyceride (TRIG) Pre-Bleed ([1]; 25 mg/kg group): 100
- Cholesterol (CHOL) Post-Bleed ([1]; 25 mg/kg single i.p.): 72
- Triglyceride (TRIG) Post-Bleed ([1]; 25 mg/kg single i.p.): 187
- Cholesterol (CHOL) Pre-Bleed ([1]; 50 mg/kg group): 79
- Triglyceride (TRIG) Pre-Bleed ([1]; 50 mg/kg group): 87
- Cholesterol (CHOL) Post-Bleed ([1]; 50 mg/kg single i.p.): 57
- Triglyceride (TRIG) Post-Bleed ([1]; 50 mg/kg single i.p.): 163
- Organ Weights: Kidney ([2]; 6.25 mg/kg single i.p.): 100 % saline control
- Organ Weights: Liver ([2]; 6.25 mg/kg single i.p.): 100 % saline control
- Organ Weights: Spleen ([2]; 6.25 mg/kg single i.p.): 95 % saline control
- Organ Weights: WAT ([2]; 6.25 mg/kg single i.p.): 90 % saline control
- Organ Weights: Kidney ([2]; 12.5 mg/kg single i.p.): 97 % saline control
- Organ Weights: Liver ([2]; 12.5 mg/kg single i.p.): 96 % saline control
- Organ Weights: Spleen ([2]; 12.5 mg/kg single i.p.): 114 % saline control
- Organ Weights: WAT ([2]; 12.5 mg/kg single i.p.): 73 % saline control
- Organ Weights: Kidney ([2]; 25 mg/kg single i.p.): 103 % saline control
- Organ Weights: Liver ([2]; 25 mg/kg single i.p.): 109 % saline control
- Organ Weights: Spleen ([2]; 25 mg/kg single i.p.): 120 % saline control
- Organ Weights: WAT ([2]; 25 mg/kg single i.p.): 97 % saline control
- Organ Weights: Kidney ([2]; 50 mg/kg single i.p.): 104 % saline control
- Organ Weights: Liver ([2]; 50 mg/kg single i.p.): 112 % saline control
- Organ Weights: Spleen ([2]; 50 mg/kg single i.p.): 130 % saline control
- Organ Weights: WAT ([2]; 50 mg/kg single i.p.): 77 % saline control
- GCGR mRNA levels (GCGR mRNA; 6.25 mg/kg): 7% of saline control
- GCGR mRNA levels (GCGR mRNA; 12.5 mg/kg): 3% of saline control
- GCGR mRNA levels (GCGR mRNA; 25 mg/kg): 8% of saline control
- GCGR mRNA levels (GCGR mRNA; 50 mg/kg): 0% of saline control
- ALT Pre-Bleed ([3]; dose group 6.25 mg/kg): 26 IU/L
- AST Pre-Bleed ([3]; dose group 6.25 mg/kg): 46 IU/L
- ALT Pre-Bleed ([3]; dose group 12.5 mg/kg): 28 IU/L
- AST Pre-Bleed ([3]; dose group 12.5 mg/kg): 44 IU/L
- ALT Pre-Bleed ([3]; dose group 25 mg/kg): 30 IU/L
- AST Pre-Bleed ([3]; dose group 25 mg/kg): 44 IU/L
- ALT Pre-Bleed ([3]; dose group 50 mg/kg): 28 IU/L
- AST Pre-Bleed ([3]; dose group 50 mg/kg): 48 IU/L

Substance: ISIS 386626: GCGR short antisense compound with C16 conjugate group at 2′-O via diamide linkage (GCTTCTCCATCATA; chemistry not fully specified)
- Glucose levels (post-bleed) ([1]; C57/BL6 mice, 48 hours after single i.p. dose): decreased in a dose-dependent manner
- GCGR mRNA expression (GCGR mRNA; single i.p. dose 6.25, 12.5, 25 or 50 mg): greatest decrease in target mRNA
